Test results as given in ChEMBL document CHEMBL6109052, “Overview of the epigenetic/cytotoxic dual-target inhibitors for cancer therapy” (Eur J Med Chem, 2025).
Values belong to the compound of their own block, whether it stands above or below them.

Assays:
HepG2 [1] = experiment: Antiproliferative activity against human HepG2 cells; format: functional, cell-based
HT-29 [2] = experiment: Antiproliferative activity against human HT-29 cells; format: functional, cell-based
A549 [3] = experiment: Antiproliferative activity against human A549 cells; format: functional, cell-based
[4] = Metabolic stability in human liver microsomes assessed as half life for 30 mins by LC-MS/MS analysis; format: ADME, Microsome
[5] = Metabolic stability in human liver microsomes assessed as intrinsic clearance measured for 30 mins by LC-MS/MS analysis; format: ADME, Microsome; conditions: read-out: CLH
Tubulin = experiment: Inhibition of tubulin polymerization (unknown origin); format: protein-complex assay, Homo sapiens
EA.hy 926 = experiment: Antiproliferative activity against human EA.hy 926 cells assessed as reduction in cell growth incubated for 72 hrs by MTT assay; format: functional, cell-based; conditions: EA.hy 926, 72 h
Histone deacetylase 1 [6] = target: T1, Histone deacetylase 1 (Homo sapiens, UniProt Q13547); experiment: Inhibition of human recombinant HDAC1 using fluorogenic peptide p53 (379 to 382 residues) RHKK(Ac) as substrate by fluorescence based analysis
T1 sequence (Q13547 whole entry, the tested form may be a part): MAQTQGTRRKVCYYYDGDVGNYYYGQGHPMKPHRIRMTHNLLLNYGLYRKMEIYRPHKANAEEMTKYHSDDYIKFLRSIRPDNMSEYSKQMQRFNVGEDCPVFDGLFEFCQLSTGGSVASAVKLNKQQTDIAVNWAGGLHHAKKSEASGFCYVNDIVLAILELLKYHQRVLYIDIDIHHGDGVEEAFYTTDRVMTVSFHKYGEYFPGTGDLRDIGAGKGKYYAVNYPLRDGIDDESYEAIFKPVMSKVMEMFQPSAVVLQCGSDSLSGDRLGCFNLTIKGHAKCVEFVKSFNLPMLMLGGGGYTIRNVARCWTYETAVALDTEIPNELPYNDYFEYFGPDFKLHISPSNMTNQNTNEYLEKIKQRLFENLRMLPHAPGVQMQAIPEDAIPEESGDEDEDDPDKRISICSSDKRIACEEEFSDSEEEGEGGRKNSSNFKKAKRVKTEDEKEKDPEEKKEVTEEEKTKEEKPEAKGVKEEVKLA

[7] = target: Polyamine deacetylase HDAC10 (Homo sapiens, UniProt Q969S8); experiment: Inhibition of human recombinant HDAC10 using fluorogenic peptide p53 (379 to 382 residues) RHKK(Ac) as substrate by fluorescence based analysis
HT-29 [8] = experiment: Antiproliferative activity against human HT-29 cells assessed as reduction in cell growth incubated for 72 hrs by SRB assay; format: functional, cell-based; conditions: HT-29, 72 h
HepG2 [9] = experiment: Antiproliferative activity against human HepG2 cells assessed as reduction in cell growth incubated for 72 hrs by SRB assay; format: functional, cell-based; conditions: HepG2, 72 h
HeLa = experiment: Antiproliferative activity against human Hela cells assessed as reduction in cell growth incubated for 72 hrs by SRB assay; format: functional, cell-based
[10] = target: T2, Protein deacetylase HDAC6 (Homo sapiens, UniProt Q9UBN7); experiment: Inhibition of human recombinant HDAC6 using fluorogenic peptide p53 (379 to 382 residues) RHKK(Ac) as substrate by fluorescence based analysis
T2 sequence (Q9UBN7 whole entry): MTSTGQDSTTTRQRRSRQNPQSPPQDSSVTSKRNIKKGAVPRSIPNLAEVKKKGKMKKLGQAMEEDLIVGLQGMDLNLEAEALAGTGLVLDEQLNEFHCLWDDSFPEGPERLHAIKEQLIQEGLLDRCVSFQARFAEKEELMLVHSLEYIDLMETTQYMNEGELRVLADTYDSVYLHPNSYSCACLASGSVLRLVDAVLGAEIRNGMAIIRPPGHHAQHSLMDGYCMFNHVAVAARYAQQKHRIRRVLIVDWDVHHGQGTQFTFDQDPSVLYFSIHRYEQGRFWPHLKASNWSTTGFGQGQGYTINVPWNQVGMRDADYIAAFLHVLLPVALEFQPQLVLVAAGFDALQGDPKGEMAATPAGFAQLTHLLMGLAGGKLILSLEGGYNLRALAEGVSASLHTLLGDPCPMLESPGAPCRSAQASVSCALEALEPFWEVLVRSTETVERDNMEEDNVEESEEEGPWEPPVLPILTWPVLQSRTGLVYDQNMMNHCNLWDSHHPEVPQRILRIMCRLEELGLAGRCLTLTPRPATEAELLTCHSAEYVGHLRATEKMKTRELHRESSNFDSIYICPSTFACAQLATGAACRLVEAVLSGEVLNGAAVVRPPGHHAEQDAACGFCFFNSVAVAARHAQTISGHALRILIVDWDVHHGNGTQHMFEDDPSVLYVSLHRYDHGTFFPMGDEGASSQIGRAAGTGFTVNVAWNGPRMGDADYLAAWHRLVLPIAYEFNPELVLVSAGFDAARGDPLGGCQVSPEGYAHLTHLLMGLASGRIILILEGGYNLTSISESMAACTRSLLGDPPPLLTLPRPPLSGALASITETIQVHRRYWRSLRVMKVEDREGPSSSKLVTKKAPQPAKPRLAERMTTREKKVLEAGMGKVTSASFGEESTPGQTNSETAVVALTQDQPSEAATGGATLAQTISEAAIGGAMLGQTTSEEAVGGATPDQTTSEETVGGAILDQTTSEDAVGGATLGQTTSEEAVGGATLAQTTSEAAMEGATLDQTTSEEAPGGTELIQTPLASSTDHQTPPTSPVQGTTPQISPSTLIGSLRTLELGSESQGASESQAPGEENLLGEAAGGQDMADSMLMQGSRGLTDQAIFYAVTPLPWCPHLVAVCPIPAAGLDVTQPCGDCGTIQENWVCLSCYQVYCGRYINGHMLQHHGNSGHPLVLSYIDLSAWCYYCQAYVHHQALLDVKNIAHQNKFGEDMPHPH

[11] = Cytotoxicity against human MM472 cells assessed as reduction in cell viability incubated for 72 hrs by SRB assay; format: functional, cell-based; conditions: MM472, 72 h
[12] = Inhibition of human recombinant HDAC2 using fluorogenic peptide p53 (379 to 382 residues) RHKK(Ac) as substrate by fluorescence based analysis
DU-145 = experiment: Antiproliferative activity against human DU-145 cells assessed as reduction in cell growth incubated for 72 hrs by SRB assay; format: functional, cell-based; conditions: DU-145, 72 h
NCI-H460 = experiment: Antiproliferative activity against human NCI-H460 cells assessed as reduction in cell growth incubated for 72 hrs by SRB assay; format: functional, cell-based; conditions: NCI-H460, 72 h
A2780 = experiment: Antiproliferative activity against human A2780 cells assessed as reduction in cell growth incubated for 72 hrs by SRB assay; format: functional, cell-based; conditions: A2780, 72 h
CAPAN-1 = experiment: Antiproliferative activity against human CAPAN-1 cells assessed as reduction in cell growth incubated for 72 hrs by SRB assay; format: functional, cell-based; conditions: CAPAN-1, 72 h
A-431 = experiment: Antiproliferative activity against human A-431 cells assessed as reduction in cell growth incubated for 72 hrs by SRB assay; format: functional, cell-based; conditions: A-431, 72 h
[13] = Antiproliferative activity against human Doxorubicin-resistant A2780-DX cells assessed as reduction in cell growth incubated for 72 hrs by SRB assay; format: functional, cell-based
DNA topoisomerase 1 = DNA topoisomerase 1 (Homo sapiens, UniProt P11387); experiment: Inhibition of Topoisomerase 1 (unknown origin)
Chain of DNA topoisomerase 1 (P11387 whole entry): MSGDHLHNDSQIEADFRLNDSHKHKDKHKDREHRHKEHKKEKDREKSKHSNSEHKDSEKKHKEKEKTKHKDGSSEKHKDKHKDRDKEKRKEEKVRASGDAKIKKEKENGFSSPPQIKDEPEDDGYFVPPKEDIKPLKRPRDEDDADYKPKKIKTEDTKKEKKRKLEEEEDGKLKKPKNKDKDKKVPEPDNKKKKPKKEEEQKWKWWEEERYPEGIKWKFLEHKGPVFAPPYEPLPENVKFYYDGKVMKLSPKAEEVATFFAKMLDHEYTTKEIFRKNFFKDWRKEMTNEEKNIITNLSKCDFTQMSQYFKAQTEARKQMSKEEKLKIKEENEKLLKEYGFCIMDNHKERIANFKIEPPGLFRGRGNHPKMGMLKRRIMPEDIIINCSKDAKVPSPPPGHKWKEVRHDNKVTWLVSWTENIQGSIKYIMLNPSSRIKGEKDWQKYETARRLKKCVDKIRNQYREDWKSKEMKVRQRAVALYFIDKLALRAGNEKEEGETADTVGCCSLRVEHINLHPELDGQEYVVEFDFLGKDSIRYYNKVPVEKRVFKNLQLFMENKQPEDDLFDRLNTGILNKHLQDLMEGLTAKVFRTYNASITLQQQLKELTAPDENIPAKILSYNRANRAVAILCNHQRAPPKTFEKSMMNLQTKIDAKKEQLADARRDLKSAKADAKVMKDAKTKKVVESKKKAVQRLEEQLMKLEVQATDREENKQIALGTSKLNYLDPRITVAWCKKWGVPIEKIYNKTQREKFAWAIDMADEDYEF

Histone deacetylase 2 = Histone deacetylase 2 (Homo sapiens, UniProt Q92769); experiment: Inhibition of HDAC2 (unknown origin)
Chain of Histone deacetylase 2 (Q92769 whole entry): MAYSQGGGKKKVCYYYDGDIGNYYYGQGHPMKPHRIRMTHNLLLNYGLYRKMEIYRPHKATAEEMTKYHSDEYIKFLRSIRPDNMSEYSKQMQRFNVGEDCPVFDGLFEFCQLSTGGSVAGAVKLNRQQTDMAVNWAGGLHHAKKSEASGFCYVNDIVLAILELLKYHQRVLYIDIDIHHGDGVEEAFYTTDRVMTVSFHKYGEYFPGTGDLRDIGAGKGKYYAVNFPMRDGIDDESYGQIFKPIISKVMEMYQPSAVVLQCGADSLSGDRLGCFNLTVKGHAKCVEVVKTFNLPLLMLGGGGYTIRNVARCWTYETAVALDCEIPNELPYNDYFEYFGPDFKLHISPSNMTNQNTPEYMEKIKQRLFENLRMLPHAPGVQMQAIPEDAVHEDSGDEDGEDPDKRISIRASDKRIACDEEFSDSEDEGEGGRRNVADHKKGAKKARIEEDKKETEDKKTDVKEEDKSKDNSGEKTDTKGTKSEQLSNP

[14] = target: T2, Protein deacetylase HDAC6; experiment: Inhibition of HDAC6 (unknown origin)
MGC-803 = experiment: Antiproliferative activity against human MGC-803 cells by MTT assay; format: functional, cell-based
Histone deacetylase 3 = Histone deacetylase 3 (Homo sapiens, UniProt O15379); experiment: Inhibition of HDAC3 (unknown origin)
Chain of Histone deacetylase 3 (O15379 whole entry): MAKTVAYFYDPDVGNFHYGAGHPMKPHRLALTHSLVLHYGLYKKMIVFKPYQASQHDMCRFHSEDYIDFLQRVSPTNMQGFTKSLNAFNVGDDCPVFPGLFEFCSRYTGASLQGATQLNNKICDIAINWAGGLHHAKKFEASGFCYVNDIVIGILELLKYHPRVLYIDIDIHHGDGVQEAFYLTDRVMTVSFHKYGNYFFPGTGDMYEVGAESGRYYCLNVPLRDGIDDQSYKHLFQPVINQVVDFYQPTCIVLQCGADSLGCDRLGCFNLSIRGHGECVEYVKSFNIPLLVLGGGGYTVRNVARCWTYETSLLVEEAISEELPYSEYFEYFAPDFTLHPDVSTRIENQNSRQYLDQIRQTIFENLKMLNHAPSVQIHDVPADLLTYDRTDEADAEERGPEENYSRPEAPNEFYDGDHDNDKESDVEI

Histone deacetylase 8 = Histone deacetylase 8 (Homo sapiens, UniProt Q9BY41); experiment: Inhibition of HDAC8 (unknown origin)
Chain of Histone deacetylase 8 (Q9BY41 whole entry): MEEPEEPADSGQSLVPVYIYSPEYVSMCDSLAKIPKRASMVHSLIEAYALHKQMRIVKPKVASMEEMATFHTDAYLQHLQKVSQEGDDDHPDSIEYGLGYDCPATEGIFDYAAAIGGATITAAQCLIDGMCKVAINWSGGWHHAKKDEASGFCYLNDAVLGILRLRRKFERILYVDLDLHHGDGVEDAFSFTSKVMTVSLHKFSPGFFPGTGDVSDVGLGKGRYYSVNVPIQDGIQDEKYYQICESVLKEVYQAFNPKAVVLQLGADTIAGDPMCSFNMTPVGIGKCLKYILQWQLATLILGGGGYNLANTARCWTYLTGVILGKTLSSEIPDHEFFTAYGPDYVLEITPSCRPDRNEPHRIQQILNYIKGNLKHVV

Histone deacetylase 1 [15] = target: T1, Histone deacetylase 1; experiment: Inhibition of HDAC1 (unknown origin)
[16] = target: T3, Poly [ADP-ribose] polymerase 1 (Homo sapiens, UniProt P09874); experiment: Inhibition of PARP1 (unknown origin)
T3 sequence (P09874 whole entry): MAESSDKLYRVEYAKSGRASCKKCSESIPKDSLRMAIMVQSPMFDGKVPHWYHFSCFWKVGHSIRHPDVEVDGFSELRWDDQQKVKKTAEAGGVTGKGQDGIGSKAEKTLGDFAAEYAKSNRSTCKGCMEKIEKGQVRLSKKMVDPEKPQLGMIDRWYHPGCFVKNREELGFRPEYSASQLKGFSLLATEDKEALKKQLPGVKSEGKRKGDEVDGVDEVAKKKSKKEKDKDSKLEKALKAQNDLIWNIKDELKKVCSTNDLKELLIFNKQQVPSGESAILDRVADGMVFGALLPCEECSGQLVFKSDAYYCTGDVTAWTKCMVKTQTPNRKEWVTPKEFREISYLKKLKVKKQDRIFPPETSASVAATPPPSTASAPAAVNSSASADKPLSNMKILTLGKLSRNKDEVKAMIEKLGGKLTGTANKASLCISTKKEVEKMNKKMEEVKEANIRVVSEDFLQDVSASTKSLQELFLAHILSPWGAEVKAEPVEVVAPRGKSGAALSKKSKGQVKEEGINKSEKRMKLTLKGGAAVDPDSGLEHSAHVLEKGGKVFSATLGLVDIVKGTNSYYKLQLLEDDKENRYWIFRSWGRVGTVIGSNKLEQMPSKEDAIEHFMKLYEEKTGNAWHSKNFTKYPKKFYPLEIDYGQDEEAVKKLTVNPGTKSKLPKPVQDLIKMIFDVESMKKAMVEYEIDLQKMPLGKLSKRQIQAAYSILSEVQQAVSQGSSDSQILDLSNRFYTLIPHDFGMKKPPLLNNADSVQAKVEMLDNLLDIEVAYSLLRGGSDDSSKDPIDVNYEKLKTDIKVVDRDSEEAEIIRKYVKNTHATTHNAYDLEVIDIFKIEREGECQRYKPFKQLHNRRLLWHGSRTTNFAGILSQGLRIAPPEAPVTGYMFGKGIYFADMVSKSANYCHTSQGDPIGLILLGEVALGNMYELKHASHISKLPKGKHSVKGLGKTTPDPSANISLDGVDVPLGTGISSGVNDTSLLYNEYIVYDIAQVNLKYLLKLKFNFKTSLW

[17] = Oral bioavailability in BALB/c mouse at 50 mg/kg by LC-MS/MS analysis; format: ADME, organism-based; conditions: in vivo
A549 [18] = experiment: Antiproliferative activity against human A549 cells assessed as reduction in cell viability incubated for 3 days by Cell-titer glo reagent based assay; format: functional; conditions: A549, 72 h
HCT-116 [19] = experiment: Antiproliferative activity against human HCT-116 cells assessed as reduction in cell viability incubated for 3 days by Cell-titer glo reagent based assay; format: functional; conditions: HCT-116, 72 h
[20] = Half life in BALB/c mouse at 50 mg/kg, po by LC-MS/MS analysis; format: ADME, organism-based; conditions: in vivo
Histone deacetylase 5 = Histone deacetylase 5 (Homo sapiens, UniProt Q9UQL6); experiment: Inhibition of HDAC5 (unknown origin)
Histone deacetylase 4 = Histone deacetylase 4 (Homo sapiens, UniProt P56524); experiment: Inhibition of HDAC4 (unknown origin)
Chain of Histone deacetylase 4 (P56524 whole entry): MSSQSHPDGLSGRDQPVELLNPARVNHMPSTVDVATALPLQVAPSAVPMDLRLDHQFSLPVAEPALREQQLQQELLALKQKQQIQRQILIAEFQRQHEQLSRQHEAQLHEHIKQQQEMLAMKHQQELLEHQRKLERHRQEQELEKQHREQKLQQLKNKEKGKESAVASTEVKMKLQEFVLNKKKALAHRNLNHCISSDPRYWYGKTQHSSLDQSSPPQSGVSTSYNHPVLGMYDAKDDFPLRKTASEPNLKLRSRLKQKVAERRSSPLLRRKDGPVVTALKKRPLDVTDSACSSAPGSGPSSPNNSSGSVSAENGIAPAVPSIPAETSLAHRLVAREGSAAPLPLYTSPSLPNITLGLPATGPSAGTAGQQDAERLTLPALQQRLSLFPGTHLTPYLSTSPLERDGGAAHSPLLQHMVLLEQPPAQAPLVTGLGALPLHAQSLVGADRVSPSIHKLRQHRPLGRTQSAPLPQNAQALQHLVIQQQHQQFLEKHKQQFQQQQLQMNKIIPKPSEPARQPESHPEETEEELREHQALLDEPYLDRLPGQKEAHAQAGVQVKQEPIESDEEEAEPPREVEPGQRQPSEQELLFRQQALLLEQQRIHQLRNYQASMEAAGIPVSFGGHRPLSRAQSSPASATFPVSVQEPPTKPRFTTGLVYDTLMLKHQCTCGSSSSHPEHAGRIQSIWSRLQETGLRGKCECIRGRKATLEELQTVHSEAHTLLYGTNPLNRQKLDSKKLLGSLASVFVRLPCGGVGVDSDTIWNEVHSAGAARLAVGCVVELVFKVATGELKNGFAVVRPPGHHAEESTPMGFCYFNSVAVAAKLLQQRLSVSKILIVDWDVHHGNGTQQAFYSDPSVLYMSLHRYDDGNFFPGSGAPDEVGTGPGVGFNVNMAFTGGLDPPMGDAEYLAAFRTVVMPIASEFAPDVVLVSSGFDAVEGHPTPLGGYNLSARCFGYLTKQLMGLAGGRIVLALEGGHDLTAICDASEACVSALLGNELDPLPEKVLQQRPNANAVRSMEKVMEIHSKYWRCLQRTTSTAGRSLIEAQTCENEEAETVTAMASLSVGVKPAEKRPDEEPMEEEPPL

SNU-475 = experiment: Antiproliferative activity against human SNU-475 cells assessed as reduction in cell viability incubated for 48 hrs by MTT assay; conditions: SNU-475, 48 h
Bel-7402 = experiment: Antitumor activity against human Bel-7402 cells xenografted in nude mouse model assessed as tumor growth inhibition at 50 mg/kg, IG administered for 21 days relative to control; conditions: Bel-7402, po, 504 h, read-out: TGI
HepG2 [21] = experiment: Antiproliferative activity against human HepG2 cells assessed as reduction in cell viability incubated for 48 hrs by MTT assay; conditions: HepG2, 48 h
HCC1937 = experiment: Antiproliferative activity against human HCC1937 cells assessed as reduction in cell viability incubated for 48 hrs by MTT assay; format: functional, cell-based; conditions: HCC1937, 48 h
K562 = experiment: Antiproliferative activity against human K562 cells assessed as reduction in cell viability incubated for 48 hrs by MTT assay; format: functional, cell-based; conditions: K562, 48 h
MCF7 = experiment: Antiproliferative activity against human MCF7 cells assessed as reduction in cell viability incubated for 48 hrs by MTT assay; format: functional, cell-based; conditions: MCF7, 48 h
HCT-116 [22] = experiment: Antiproliferative activity against human HCT-116 cells assessed as reduction in cell viability incubated for 48 hrs by MTT assay; format: functional, cell-based; conditions: HCT-116, 48 h
[23] = target: T3, Poly [ADP-ribose] polymerase 1; experiment: Inhibition of PARP-1 (unknown origin)

IC50 (HepG2 [1]): 2880 nM | IC50 (HT-29 [2]): 1880 nM | IC50 (A549 [3]): 5960 nM
Structure (SMILES): COc1ccc2c3ccnc(C)c3n(CC3CCN(c4ncc(C(=O)NO)cn4)CC3)c2c1

half-life [4]: 0.913 h | CLint scaled [5]: 22.8 mL/min/kg | IC50 (Tubulin): 2400 nM
Structure (SMILES): COc1ccc(-c2cccc(-c3cc(OC)c(OC)c(OC)c3)n2)cc1C(=O)NO

Structure (SMILES): COc1ccc(-c2ocnc2-c2cc(Br)c(OC)c(OC)c2)cc1OCCCCCC(=O)NO
IC50 (EA.hy 926): 410 nM

IC50 (Tubulin): 1270 nM
Structure (SMILES): Cc1ccc(Cn2cc(CSC(=S)N3CCN(C(=O)OC(C)(C)C)CC3)nn2)cc1

Structure (SMILES): CC[C@]1(O)C(=O)OCc2c1cc1n(c2=O)Cc2c-1nc1ccc(O)cc1c2/C=N/OCCCCCC(=O)NO
IC50 (Histone deacetylase 1 [6]): 5260 nM | IC50 [7]: 2240 nM | IC50 (HT-29 [8]): 30 nM | IC50 (HepG2 [9]): 30 nM | IC50 (HeLa): 30 nM | IC50 [10]: 1560 nM | IC50 [11]: 48 nM | IC50 [12]: 9330 nM | IC50 (DU-145): 30 nM | IC50 (NCI-H460): 30 nM | IC50 (A2780): 30 nM | IC50 (CAPAN-1): 30 nM | IC50 (A-431): 30 nM | IC50 [13]: 30 nM

IC50 (DNA topoisomerase 1): 770 nM
Structure (SMILES): CCc1c2c(nc3ccc(O)cc13)-c1cc3c(c(=O)n1C2)COC(=O)[C@]3(O)CC [7-ETHYL-10-HYDROXYCAMPTOTHECIN]

IC50 (Histone deacetylase 2): 3010 nM | IC50 [14]: 77400 nM | IC50 (MGC-803): 39 nM | IC50 (Histone deacetylase 3): 5270 nM
Structure (SMILES): COc1ccc(CN(C(=O)Cc2ccc(C(=O)Nc3ccccc3N)cc2)c2cc(OC)c(OC)c(OC)c2)cc1O

IC50 (Histone deacetylase 8): 1400 nM | IC50 (Histone deacetylase 1 [15]): 1800 nM | IC50 (Histone deacetylase 2): 2100 nM | IC50 [14]: 2000 nM | IC50 (Histone deacetylase 3): 1800 nM
Structure (SMILES): O=C(Cc1ccc(/C=C/C(=O)c2ncc[nH]2)cc1)Nc1ccc(F)cc1

IC50 [16]: 7 nM | bioavailability [17]: 31% | IC50 (A549 [18]): 141 nM | IC50 (HCT-116 [19]): 352 nM | IC50 (Tubulin): 990 nM | half-life [20]: 3.28 h
Structure (SMILES): CCOC(=O)Nc1nc2ccc(-c3cc(Cc4n[nH]c(=O)c5ccccc45)ccc3F)cc2[nH]1

Structure (SMILES): Cn1c(CCCCCCC(=O)NO)nc2ccc(N(CCCl)CCCl)cc21
IC50 (Histone deacetylase 5): 107 nM | IC50 (Histone deacetylase 1 [15]): 17 nM | IC50 (Histone deacetylase 2): 10 nM | IC50 [14]: 72 nM | IC50 (Histone deacetylase 4): 6.4 nM | IC50 (Histone deacetylase 3): 25 nM

IC50 (SNU-475): 730 nM | IC50 (HepG2 [21]): 570 nM
Structure (SMILES): COc1ccc(S(=O)(=O)N(CCSC(=S)N2CCN(C)CC2)c2cc(OC)c(OC)c(OC)c2)cc1
inhibition in vivo at 50 mg/kg (Bel-7402): 43%

IC50 (HCC1937): 7960 nM | IC50 (K562): 3940 nM | IC50 (MCF7): 13800 nM | IC50 (HCT-116 [22]): 12900 nM | IC50 [23]: 11800 nM
Structure (SMILES): O=C(c1cc(Cc2n[nH]c(=O)c3ccccc23)ccc1F)N1CCN(c2c3ccccc3nc3ccccc23)CC1

Structure (SMILES): COc1cc(/C=C/C(=O)c2ccc(NC(=O)c3ccccc3CN3C(=O)c4ccccc4C3=O)cc2)cc(OC)c1OC
IC50 (Histone deacetylase 1 [15]): 220 nM | IC50 (Histone deacetylase 2): 430 nM
